According to patent publication US7288547B2, “CDK-inhibitory 2-heteroaryl-pyrimidines, their production and use as pharmaceutical agents” (Schering AG, priority 2002, dated 2007):
Where two headings read alike, the source gives them in different places.

Tests used:
MCF7 = experiment: Proliferation Assay (crystal violet); type: cell-based, human
Method: Cultivated human tumor cells (as indicated) were flattened out at a density of 5000 cells/measuring point in a 96-well multititer plate in 200 μl of the corresponding growth medium. After 24 hours, the cells of one plate (zero-point plate) were colored with crystal violet (see below), while the medium of the other plates was replaced by fresh culture medium (200 μl), to which the test substances were added in various concentrations (0 μm, as well as in the range of 0.01-30 μm; the final concentration of the solvent dimethyl sulfoxide was 0.5%). The cells were incubated for 4 days in the presence of test substances. The cell proliferation was determined by coloring the cells with crystal violet: the cells were fixed by adding 20 μl/measuring point of a 11% glutaric aldehyde solution for 15 minutes at room temperature. After three washing cycles of the fixed cells with water, the plates were dried at room temperature. The cells were colored by adding 100 μl/measuring point of a 0.1% crystal violet solution (pH was set at 3 by adding acetic acid). After three washing cycles of the colored cells with water, the plates were dried at room temperature. The dye was dissolved by adding 100 μl/measuring point of a 10% acetic acid solution. The extinction was determined by photometry at a wavelength of 595 nm. The change of cell growth, in percent, was calculated by standardization of the measured values to the extinction values of the zero-point plate (=0%) and the extinction of the untreated (0 μm) cells (=100%).

CDK2/CycE = biological target: T1, CDK2/CycE (Homo sapiens, UniProt P24941); experiment: CDK2/CycE Kinase Assay; type: biochemical
T1 construct: GST; purchased Proquinase Company, Freiburg; host or cells: baculovirus-infected insect cells (Sf9)
Method: Recombinant CDK2- and CycE-GST-fusion proteins, purified from baculovirus-infected insect cells (Sf9), were purchased by the Proquinase Company, Freiburg. Histone IIIS, which was used as a kinase substrate, was purchased by the Sigma Company.
The reaction was stopped by adding EDTA solution (250 mmol, pH 8.0, 14 μl/measuring point).
From each reaction batch, 10 μl was applied to P30 filter strips (Wallac Company), and non-incorporated ^33P-ATP was removed by subjecting the filter strips to three washing cycles for 10 minutes each in 0.5% phosphoric acid. After the filter strips were dried for one hour at 70° C., the filter strips were covered with scintillator strips (MeltiLex™ A, Wallac Company) and baked for one hour at 90° C. The amount of incorporated ^33P (substrate phosphorylation) was determined by scintillation measurement in a gamma-radiation measuring device (Wallac).

[1] = Homo sapiens, MCF7, MCF-7 cells, comparison with known reference compounds, read-out: MCF-7 IC50
[2] = read-out: Inhibition IC50 CDK2/CycE
[3] = Homo sapiens, MCF7, 96 h, MCF7 cells, 4 days incubation, read-out: Proliferation IC50 MCF7

SMILES | IC50 (MCF7; [1]) [nM] | IC50 (CDK2/CycE; [2]) [nM] | IC50 (MCF7; [3]) [nM] | IC50 (MCF7; MCF7 cells, 4 days incubation, read-out: Proliferation IC50 MCF7) [nM] | IC50 (CDK2/CycE; comparison with known reference compounds, read-out: CDK2/CycE IC50) [nM]
O=C1Cc2c([nH]c3ccc([N+](=O)[O-])cc23)-c2ccccc2N1 [Alsterpaullone, reference compound] | 1200 |  |  |  | 
C[C@H](CO)Nc1nc(Nc2ccc(S(N)(=O)=O)nc2)ncc1Br [Example 1.7] |  | 6 |  |  | 
CC(C)[C@H](CO)Nc1nc(Nc2cc(S(N)(=O)=O)sc2Cl)ncc1Br [Example 1.8] |  | 87 | 3000 |  | 
CC(C)[C@H](CO)Nc1nc(Nc2csc(S(N)(=O)=O)c2)ncc1Br [Example 1.9] |  | 50 |  |  | 
CC(C)[C@H](CO)Nc1nc(Nc2ccc(S(N)(=O)=O)nc2)ncc1Br [Example 1.11] |  | 40 | 1200 |  | 
CC(O)C(C)Nc1nc(Nc2ccc(S(N)(=O)=O)nc2)ncc1Br (centres unmarked) [Example 1.12] |  | 22 | 240 |  | 
C[C@@H](O)[C@@H](C)Nc1nc(Nc2ccc(S(N)(=O)=O)nc2)ncc1Br [Example 1.13] |  | 8 |  | < 100 | 
CC(=O)C(C)Nc1nc(Nc2ccc(S(N)(=O)=O)nc2)ncc1Br (centres unmarked) [Example 1.14] |  | 17 | 870 |  | 
CC[C@@H](CO)Nc1nc(Nc2ccc(S(N)(=O)=O)nc2)ncc1Br [Example 1.15] |  | 13 | 2000 |  | 
COC[C@H](C)Nc1nc(Nc2ccc(S(N)(=O)=O)nc2)ncc1Br [Example 1.16] |  | 36 | 2000 |  | 
CC[C@H](CO)Nc1nc(Nc2ccc(S(N)(=O)=O)nc2)ncc1Br [Example 1.17] |  | 7 | 500 |  | 
NS(=O)(=O)c1ccc(Nc2ncc(Br)c(NCC3CC3)n2)cn1 [Example 1.19] |  | 12 |  |  | 
C[C@H](CO)Nc1nc(Nc2ccc(S(=O)(=O)NCCO)nc2)ncc1Br [Example 1.20] |  | 13 | 1900 |  | 
NS(=O)(=O)c1ccc(Nc2ncc(Br)c(SCCCCO)n2)cn1 [Example 1.21] |  | 30 | 5300 |  | 
CC(CO)N(C)c1nc(Nc2ccc(S(N)(=O)=O)nc2)ncc1Br (centres unmarked) [Example 3.3] |  | 36 | 620 |  | 
CC(Nc1nc(Nc2ccc(S(N)(=O)=O)nc2)ncc1Br)C(C)(C)O (centres unmarked) [Example 3.4] |  | 58 | 840 |  | 
C[C@H](O)[C@H](C)Nc1nc(Nc2ccc(S(N)(=O)=O)nc2)ncc1Br [Example 3.5] |  | < 10 | 880 |  | 
C[C@@H](O)[C@@H](C)Nc1nc(Nc2ccc(S(N)(=O)=O)nc2)ncc1Br [Example 3.6] |  | < 10 | 100 |  | 
NS(=O)(=O)c1ccc(Nc2ncc(Br)c(NC3CCCCC3)n2)cn1 [Example 3.12] |  | 20 | 790 |  | 
CC1CCCCC1Nc1nc(Nc2ccc(S(N)(=O)=O)nc2)ncc1Br (centres unmarked) [Example 3.13] |  | 16 | 300 |  | 
CC(CO)Sc1nc(Nc2ccc(S(N)(=O)=O)nc2)ncc1Br (centres unmarked) [Example 4.1] |  | < 10 | 610 |  | 
CCC(CO)Sc1nc(Nc2ccc(S(N)(=O)=O)nc2)ncc1Br (centres unmarked) [Example 4.2] |  | < 10 | 260 |  | 
CC(O)C(C)Sc1nc(Nc2ccc(S(N)(=O)=O)nc2)ncc1Br (centres unmarked) [Example 4.3] |  | 34 | 230 |  | 
CCC(Sc1nc(Nc2ccc(S(N)(=O)=O)nc2)ncc1Br)C(C)O (centres unmarked) [Example 4.6, 5-[5-bromo-4-(1-ethyl-2-hydroxy-propylsulfanyl)-pyrimidin-2-ylamino]-pyridine-2-sulfonic acid amide] |  | 74 | 630 |  | 
CC(Nc1nc(Nc2ccc(S(N)(=O)=O)nc2)ncc1Br)C(C)NC1CC1 (centres unmarked) [Example 6.0, 5-[5-bromo-4-(2-cyclopropylamino-1-methyl-propylamino)-pyrimidin-2-ylamino]-pyridine-2-sulfonic acid amide] |  | 25 | 2300 |  | 
O=C1Cc2c([nH]c3ccc(Br)cc23)-c2ccccc2N1 [Kenpaullone, reference compound] | 6000 |  |  |  | 
Cn1cnc2c(NCc3ccccc3)nc(NCCO)nc21 [Olomoucine, reference compound] | 30000 |  |  |  | 
CC(C)[C@H](CO)Nc1nc(Nc2cccc(Cl)c2)c2ncn(C(C)C)c2n1 [Purvalanol A, reference compound] | 2000 |  |  |  | 10
